Test results from patent US20140079836A1, “METHODS AND COMPOSITIONS FOR ALTERING HEALTH, WELLBEING, AND LIFESPAN” (LifeSpan Extension, LLC, priority 2008, published 2014).

Tested on: genes involved in longevity (Array 1)
Assay: Custom RT-PCR microarray (Array 1) gene expression in skin fibroblasts, UVB/UVA1
Type: cell-based, human
Details: for RTC gene expression fold change / PPC gene expression fold change: control well
Method: Seeding of cells: On Day 1, each cell culture was seeded into 6 well cluster dishes at ˜1.5×10^5 cells in 4 mls medium per well. Three wells were seeded per test condition or control.
Experimental phase: On Day 3, wells were washed 1× with 2 mls medium, fed back 2 mls medium without fetal bovine serum and preincubated for 30-60 minutes before challenge with test or control conditions. After the preincubation, medium was aspirated from the wells and 2.5 mls of test or control condition in medium with 1% fetal bovine serum was pipetted into the appropriate wells.
(3) UVA1, UVB exposed and unexposed cells without test condition were used as controls. The experimental phase ended at 24 hours post UV exposure. Cells from each test and control parameter were then prepped for RNA isolation as described below.
UVB/UVA1 exposure: Cells exposed to UV received 200 mJ/cm^2 UVB/1 MED UVA1 using Thermo Oriel solar simulator model SP66923-3056. Cells were exposed from the bottom of the culture dish. The UV dose delivered to the cells was adjusted for interference from the plastic in the culture dish.
Preparation of RNA: The RNA was isolated using the Qiagen RNEasy Plus Mini Kit according to the manufacturer's protocol which can be found on the World Wilde Web at qiagen.com/literature/Defaultaspx?Term=&Language=EN&LiteratureType=4& ProductCategory=10162. The RNA was quantified and examined for purity using the 260/280 nm read method in a μ Quant spectrophotometer before use in the array.
Creation and Performance of a Custom Microarray (“Array 1”): Through the Custom Array design service of Superarray Bioscience Corporation, a 96 well RT-PCR microarray (“Array 1”) was developed to illustrate genetic responses in cells treated as above for specific genes involved in longevity as well as the relevant quality controls. The array was performed in compliance with manufacturer's guidelines and by recommended manufacturer's protocol as can be found on the World Wilde Web at superarray.com/Manual/perarrayplate.pdf
(§1) Custom Microarray Results: The results from the microarrays were determined using the delta CT method which uses comparisons of control genes and threshold cycles of genes of interest to generate relative expression values. The full set of experimental conditions was cross referenced and the data is provided herewith in DATA TABLE 3.
Preparation of RNA: The RNA was isolated using the Qiagen RNEasy Plus Mini Kit according to the manufacturer's protocol which can be found on the World Wide Web at qiagen.com/literature/Default. aspx?Term=&Language=EN&LiteratureType=4&ProductCategory=10162.
The RNA was quantified and examined for purity using the 260/280 nm read method in a μ Quant spectrophotometer before use in the array.
Creation and Performance of the Custom Microarray: Through the Custom Array design service of Superarray Bioscience Corporation, a 96 well RT-PCR Microarray was developed to illustrate genetic responses in cells treated as above for specific genes involved in longevity as well as the relevant quality controls. The array was performed in compliance with manufacturer's guidelines and by recommended manufacturer's protocol as can be found on the World Wide Web at superarray.com/Manual/perarrayplate.pdf.
as §1, with “4.” for “3.”
as §1, with “5. […]” for “3.”

[1] = donor three vs. donor two idebenone + UVB Continuous Incubation
[2] = donor two idebenone + UVB 4 hr Incubation
[3] = donor two idebenone + UVB Continuous Incubation
[4] = donor two idebenone + UVB vs. Green tea + UVB 4 hr Incubation
[5] = donor two idebenone + UVB vs. Green tea + UVB Continuous Incubation

COC1=C(OC)C(=O)C(CCCCCCCCCCO)=C(C)C1=O [Idebenone, 6-(10-hydroxydecyl)-2,3-dimethoxy-5-methyl-1,4-benzoquin-one]
HSPA1A expression fold change [1]: 2.28 | HSPA1B expression fold change [1]: 2.62 | HSPA1L expression fold change [1]: 1.61 | IFI44 expression fold change [1]: −1.43 | IGF1 expression fold change [1]: −1.08 | IGF2 expression fold change [1]: −1.16 | IL1A expression fold change [1]: 2.20 | IL6 expression fold change [1]: 3.97 | IL10 expression fold change [1]: 1.14 | KRAS expression fold change [1]: 1.18 | MAPK14 expression fold change [1]: 1.03 | NADSYN1 expression fold change [1]: 2.28 | NFKB1 expression fold change [1]: 1.56 | NOS2A expression fold change [1]: 1.56 | PARP1 expression fold change [1]: 2.05 | PARP2 expression fold change [1]: −1.48 | PPARG expression fold change [1]: −1.76 | PTGS2 expression fold change [1]: 2.44 | SHC1 expression fold change [1]: 1.67 | SIRT1 expression fold change [1]: −1.04 | SOD1 expression fold change [1]: 2.44 | SOD2 expression fold change [1]: −1.38 | TEP1 expression fold change [1]: 1.31 | TERT expression fold change [1]: 2.13 | TNF expression fold change [1]: 1.40 | TP53 expression fold change [1]: −1.04 | ACE expression fold change [2]: 1.22 | ACTB expression fold change [2]: −1.01 | APOE expression fold change [2]: 1.03 | BAX expression fold change [2]: 1.40 | BCL2 expression fold change [2]: 1.40 | CASP2 expression fold change [2]: −1.53 | CASP9 expression fold change [2]: 1.27 | CCL4L1 expression fold change [2]: 1.06 | CLK1 expression fold change [2]: −1.24 | COX1 expression fold change [2]: 1.14 | CREBBP expression fold change [2]: 1.10 | CYP19A1 expression fold change [2]: 1.40 | DDC expression fold change [2]: 1.45 | GAPDH expression fold change [2]: −1.95 | GH1 expression fold change [2]: −1.04 | HIGX1A fold change [2]: −1.42 | HLA-DRA expression fold change [2]: 1.22 | HPRT1 expression fold change [2]: 1.03 | HSPA1A expression fold change [2]: 1.06 | HSPA1B expression fold change [2]: 1.56 | HSPA1L expression fold change [2]: 1.40 | IFI44 expression fold change [2]: 2.20 | IGF1 expression fold change [2]: −1.47 | IGF2 expression fold change [2]: 1.06 | IL1A expression fold change [2]: −2.16 | IL6 expression fold change [2]: −11.39 | IL10 expression fold change [2]: 1.14 | KRAS expression fold change [2]: 1.73 | MAPK14 expression fold change [2]: 1.27 | NADSYN1 expression fold change [2]: −1.08 | NFKB1 expression fold change [2]: 2.20 | NOS2A expression fold change [2]: 1.61 | PARP1 expression fold change [2]: 1.92 | PARP2 expression fold change [2]: 1.22 | PPARG expression fold change [2]: 1.18 | PTGS2 expression fold change [2]: 1.61 | SHC1 expression fold change [2]: 2.06 | SIRT1 expression fold change [2]: 1.18 | SOD1 expression fold change [2]: −1.08 | SOD2 expression fold change [2]: 1.27 | TEP1 expression fold change [2]: 1.31 | TERT expression fold change [2]: −1.38 | TNF expression fold change [2]: −1.20 | TP53 expression fold change [2]: −1.64 | ACE expression fold change [3]: 1.92 | ACTB expression fold change [3]: 1.31 | APOE expression fold change [3]: 1.18 | BAX expression fold change [3]: −1.04 | BCL2 expression fold change [3]: 3.83 | CASP2 expression fold change [3]: 1.14 | CASP9 expression fold change [3]: 2.13 | CCL4L1 expression fold change [3]: 1.40 | CLK1 expression fold change [3]: 1.85 | COX1 expression fold change [3]: −1.43 | CREBBP expression fold change [3]: 1.18 | CYP19A1 expression fold change [3]: 1.31 | DDC expression fold change [3]: 1.85 | GAPDH expression fold change [3]: −1.38 | GH1 expression fold change [3]: 3.01 | HIGX1A fold change [3]: 1.22 | HLA-DRA expression fold change [3]: 2.44 | HPRT1 expression fold change [3]: 5.23 | HSPA1A expression fold change [3]: 1.50 | HSPA1B expression fold change [3]: 3.70 | HSPA1L expression fold change [3]: −2.48 | IFI44 expression fold change [3]: 1.56 | IGF1 expression fold change [3]: 3.45 | IGF2 expression fold change [3]: −1.12 | IL1A expression fold change [3]: 3.57 | IL6 expression fold change [3]: 3.01 | IL10 expression fold change [3]: 2.05 | KRAS expression fold change [3]: 2.13 | MAPK14 expression fold change [3]: 2.44 | NADSYN1 expression fold change [3]: 1.56 | NFKB1 expression fold change [3]: 3.70 | NOS2A expression fold change [3]: 1.98 | PARP1 expression fold change [3]: 1.67 | PARP2 expression fold change [3]: 2.53 | PPARG expression fold change [3]: 3.22 | PTGS2 expression fold change [3]: 2.71 | SHC1 expression fold change [3]: 1.92 | SIRT1 expression fold change [3]: 1.98 | SOD1 expression fold change [3]: 1.10 | SOD2 expression fold change [3]: 1.03 | TEP1 expression fold change [3]: 1.79 | TERT expression fold change [3]: 8.50 | TNF expression fold change [3]: 1.50 | TP53 expression fold change [3]: 1.67 | ACE expression fold change [4]: 1.32 | ACTB expression fold change [4]: −3.03 | APOE expression fold change [4]: 1.04 | BAX expression fold change [4]: 1.11 | BCL2 expression fold change [4]: 1.19 | CASP2 expression fold change [4]: −1.23 | CASP9 expression fold change [4]: 1.15 | CCL4L1 expression fold change [4]: 10.95 | CLK1 expression fold change [4]: −1.11 | COX1 expression fold change [4]: −1.19 | CREBBP expression fold change [4]: 1.11 | CYP19A1 expression fold change [4]: 11.33 | DDC expression fold change [4]: 14.95 | GAPDH expression fold change [4]: −2.92 | GH1 expression fold change [4]: 8.30 | HIGX1A fold change [4]: 8.30 | HLA-DRA expression fold change [4]: 16.03 | HPRT1 expression fold change [4]: 1.04 | HSPA1A expression fold change [4]: 1.32 | HSPA1B expression fold change [4]: 2.64 | HSPA1L expression fold change [4]: 1.87 | IFI44 expression fold change [4]: 2.15 | IGF1 expression fold change [4]: 4.77 | IGF2 expression fold change [4]: 1.00 | IL1A expression fold change [4]: 1.28 | IL6 expression fold change [4]: −9.83 | IL10 expression fold change [4]: 4.29 | KRAS expression fold change [4]: −1.11 | MAPK14 expression fold change [4]: 1.32 | NADSYN1 expression fold change [4]: −1.19 | NFKB1 expression fold change [4]: −1.03 | NOS2A expression fold change [4]: 17.18 | PARP1 expression fold change [4]: 1.52 | PARP2 expression fold change [4]: 5.87 | PPARG expression fold change [4]: 2.74 | PTGS2 expression fold change [4]: 2.22 | SHC1 expression fold change [4]: 1.11 | SIRT1 expression fold change [4]: 1.63 | SOD1 expression fold change [4]: 1.52 | SOD2 expression fold change [4]: −1.32 | TEP1 expression fold change [4]: 2.55 | TERT expression fold change [4]: 3.37 | TNF expression fold change [4]: 6.98 | TP53 expression fold change [4]: −1.51 | ACE gene expression fold change [5]: 1.33 | ACTB gene expression fold change [5]: −1.67 | APOE gene expression fold change [5]: 1.16 | BAX gene expression fold change [5]: −1.45 | BCL2 gene expression fold change [5]: −1.10 | CASP2 gene expression fold change [5]: −1.79 | CASP9 gene expression fold change [5]: 1.58 | CCL4L1 gene expression fold change [5]: 4.97 | CLK1 gene expression fold change [5]: 1.01 | COX1 gene expression fold change [5]: −2.53 | CREBBP gene expression fold change [5]: −1.10 | CYP19A1 gene expression fold change [5]: 8.07 | DDC gene expression fold change [5]: 24.46 | GAPDH gene expression fold change [5]: −1.10 | GH1 gene expression fold change [5]: 25.33 | HIGX1A gene expression fold change [5]: 6.12 | HLA-DRA gene expression fold change [5]: 58.18 | HPRT1 gene expression fold change [5]: 2.40 | HSPA1A gene expression fold change [5]: 1.12 | HSPA1B gene expression fold change [5]: 1.16 | HSPA1L gene expression fold change [5]: −1.61 | IFI44 gene expression fold change [5]: 1.29 | IGF1 gene expression fold change [5]: 6.12 | IGF2 gene expression fold change [5]: −1.14 | IL1A gene expression fold change [5]: 10.65 | IL6 gene expression fold change [5]: 1.04 | IL10 gene expression fold change [5]: 4.32 | KRAS gene expression fold change [5]: 1.53 | MAPK14 gene expression fold change [5]: 1.64 | NADSYN1 gene expression fold change [5]: 1.12 | NFKB1 gene expression fold change [5]: 2.24 | NOS2A gene expression fold change [5]: 15.06 | PARP1 gene expression fold change [5]: −1.98 | PARP2 gene expression fold change [5]: 4.48 | PPARG gene expression fold change [5]: 2.16 | PTGS2 gene expression fold change [5]: −1.06 | SHC1 gene expression fold change [5]: 1.48 | SIRT1 gene expression fold change [5]: 1.88 | SOD1 gene expression fold change [5]: −1.56 | SOD2 gene expression fold change [5]: 1.33 | TEP1 gene expression fold change [5]: 1.12 | TERT gene expression fold change [5]: 7.53 | TNF gene expression fold change [5]: 10.29 | TP53 gene expression fold change [5]: 1.88 | RTC gene expression fold change (donor two idebenone + UVB vs. Green tea + UVB Continuous Incubation, entry r283): 1.08 | PPC gene expression fold change (donor two idebenone + UVB vs. Green tea + UVB Continuous Incubation, entry r289): −1.67 | RTC gene expression fold change (donor two idebenone + UVB vs. Green tea + UVB Continuous Incubation, entry r293): 2.09 | PPC gene expression fold change (donor two idebenone + UVB vs. Green tea + UVB Continuous Incubation, entry r295): −1.35
